Source: PubChem BioAssay (NCI)
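Assay format: 96-well plates, 48-hour exposure. GI50 marks 50% less growth. Definition used: TGI = concentration required for complete inhibition of growth.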

Test system: MDA-MB-468 breast
Assay: NCI-60 cell line screen, 48 h

| Compound | GI50 | TGI |
| --- | --- | --- |
| Cc1cc(O)c(C2=NN(c3ccc(S(N)(=O)=O)cc3)C(c3ccc(Cl)cc3)C2)c(C)c1Cl (stereo unspecified) | 10700 nM | 24600 nM |
| C#Cc1nc2ccccc2c(=O)[nH]1 | 199 nM | 486 nM |
| Cc1c2cc(Cl)c3ccccc3c2c[n+]2ccccc12 | 165 nM | 570 nM |
| COc1ccc2[nH]c(O)c(/C=c3/cc4c(c(-c5ccc(F)c(OC)c5)n3)=Nc3ccccc3-4)c2c1 | 1430 nM | 2940 nM |
| O=C1CCC(N2C(=O)c3ccccc3C2=O)C(=O)N1 (stereo unspecified) | > 100000 nM | > 100000 nM |
| Cc1nc(Nc2ccccn2)sc1C(=O)/C=C/c1ccc(Cl)cc1 | 395 nM | 5700 nM |
| c1ccc2c(-c3nc(-c4c[nH]c5ccncc45)cs3)c[nH]c2c1 | 226 nM | 1510 nM |
| OCc1ccc(-c2cscc2-c2ccc(CO)o2)o1 | 74 nM | 281 nM |
| CCN=C1C=CC(=C(c2ccc(N(CC)CC)cc2)c2ccc(N(CC)CC)cc2)c2ccccc21 | 30.2 nM | 228 nM |
| O=C(NCCc1ccccn1)OCc1nc2nc(Cl)nc(N3CCOCC3)c2[nH]1 | 1350 nM | 2880 nM |
| O=P1(S)OC[C@H]2O[C@@H]3[C@H](F)[C@@H]2OP(O)(=S)OC[C@H]2O[C@H]([C@H](F)[C@@H]2O1)n1cnc2c(ncnc21)NC/C=C/CNc1ncnc2c1ncn23 (stereo partly specified) | 11500 nM | > 100000 nM |
| Cc1nn2c(/C=C3/C(=O)Nc4cc(Cl)ccc43)c(-c3ccccc3)nc2s1 | 27700 nM | > 100000 nM |
| Cc1nc2ccc(NC(=O)CCNC(=O)CCCc3ccc(CC(C(=O)O)C(=O)O)cc3)cc2s1 | > 100000 nM | > 100000 nM |
| c1ccc(-c2nc(N3CCOCC3)c3c4c(sc3n2)CCCCCC4)nc1 | 4120 nM | 19000 nM |
| COc1ccc(C(O)c2cc3c(N)c(C(=O)Nc4cccc(Cl)c4)sc3nc2C)cc1 (stereo unspecified) | 286 nM | 28400 nM |
| Cn1cc(C2=C(c3cn(C)c4ccc(Cl)cc34)C(=O)NC2=O)c2ccccc21 | 2860 nM | 22000 nM |
| COc1ccc(C(=O)NNc2nc(Cl)nc(N3CCN(C(c4ccccc4)c4ccccc4)CC3)n2)cc1 | 2500 nM | 47500 nM |
| O=c1[nH]c2nc(NC3CCOCC3)ncc2cc1Oc1ccc(F)cc1F | > 25000 nM | > 25000 nM |
| CS(=O)(=O)Nc1cc(-c2ccc3ncc(C#N)c(NCc4ccccc4O)c3c2)cnc1Cl | 173 nM | 1680 nM |

| Compound | GI50 | TGI |
| --- | --- | --- |
| O=C(Nc1ccc(-c2nc(-c3cccc(OCCN4CCOCC4)c3)c(-c3ccnc(Br)c3)[nH]2)cc1)c1ccccc1 | 1770 nM | 5700 nM |
| Cc1ccc(S(=O)(=O)c2nc(-c3ccccc3)oc2S(C)=O)cc1 (stereo unspecified) | 520 nM | 2150 nM |
| C1=C2CCCC3=Cc4ccccc4OC23Oc2ccccc21 | 5420 nM | 69100 nM |
| COc1ccc(-c2nc(-c3nc4ccc(F)cc4[nH]3)c3ccccn23)cc1 | 4120 nM | 57100 nM |
| Cc1nc(Nc2cccnc2)sc1C(=O)/C=C/c1ccc(Cl)cc1 | 2890 nM | 8480 nM |
| COc1cc2c(cc1OC)C(=O)/C(=C/c1cc(-c3ccc4c(c3)OCO4)n[nH]1)C2 | 1070 nM | 2410 nM |
| C=C1CCC2(C#N)[C@H]3[C@H](CC[C@@H]2C)[C@@H](C)C[C@@H](CC(C)(C)NC(=O)CN2CCC2=O)[C@H]13 (stereo partly specified) | 3220 nM | 22900 nM |
| Cc1nc2c(n1C)C(=O)c1ccccc1C2=O | 25100 nM | > 100000 nM |
| CCN(c1cc(-c2ccc(CN3CCOCC3)cc2)cc(C(=O)NCc2c(C)cc(C)[nH]c2=O)c1C)C1CCOCC1 | 13400 nM | 30400 nM |
| COc1cnc2c(c1)C(=O)c1c-2n(CCCNCCO)c(=O)c2ccncc12 | 283 nM | 1650 nM |
| COc1cc(NC(=O)CCSc2nc3ccc(C)cc3c(=O)n2Cc2ccccc2)cc(OC)c1OC | 5390 nM | > 100000 nM |
| CSCCCNC(=O)c1ccc2c(c1)/C(=C/c1[nH]c(C)cc1C)C(=O)N2 | 481 nM | > 100000 nM |
| O=c1cc(N/N=C/c2ccc(F)cc2)c2cc(Cl)ccc2[nH]1 | 13300 nM | 49100 nM |
| O=C([O][Sn]([O]C(=O)c1ccccn1)([c]1ccccc1)[c]1ccccc1)c1ccccn1 | 1450 nM | 2760 nM |
| NCCOCCOCCNc1nc(-c2ccc(Cl)cc2)nc(N2CCN(c3ccccn3)CC2)n1 | 1950 nM | 3990 nM |
| C=CC(=O)Nc1cc(N2CCN(CC)CC2)ccc1Nc1cc(N(C)C(=O)Nc2c(Cl)c(OC)cc(OC)c2Cl)ncn1 | 1680 nM | 4160 nM |
| O=C(Oc1ccc(CO[N+](=O)[O-])cc1)c1ccccc1 | 146 nM | 332 nM |
| Cn1cc(-c2ccc3nnc(Sc4ccc5ncccc5c4)n3n2)cn1 | 16400 nM | > 91400 nM |
| COc1cc(C)c(C2NC(=O)c3ccccc3N2)cc1C (stereo unspecified) | 754 nM | > 100000 nM |
